Assay: Inhibition of human recombinant sPLA2-V at 1 uM

- IC50: 3.22 µM
SMILES: COc1ccc(-c2nc3c(C(N)=O)cccc3[nH]2)cc1 [2-(4-methoxyphenyl)-1H-1,3-benzodiazole-4-carboxamide]
